Legend:
[1] = system: Beclin-1, p62, Nrf2, eIF2a and p-eIF2α in C6 cells; assay: Analysis of autophagy markers and Nrf2 pathway by Western blot; type: cell-based, rat; conditions: for levels of total eIF2-α (immunoblot) / phosphorylation of eIF2-α (p-eIF2-α, immunoblot): curcumin 2, 15 and 30 μM or Cur-[G2]-OH 6, 45 and 90 μM
Procedure: C6 cells were grown in 25 cm^2 culture bottles (Corning® N.Y.) to form a 70% confluent monolayer (approximately 4×10^6 cells) and treated with Cur-[G2]-OH (300 μM) for 24 hours. The cells were washed in cold PBS, and lysis buffer (50 mM Tris-HCl, 120 mM NaCl, 0.01% IGEPAL) was added with a protease inhibitor cocktail (Sigma® P8340) and centrifuged to recover the supernatant. Proteins were quantified by the Lowry method (Lowry et al. 1951).
[…] The membranes were blocked with skim milk and subsequently incubated with the respective primary antibody (Beclin1, ab62557; p62, ab91526; Nrf2, sc-30915; p-eIF2α, sc-12412; eIF2, sc-11386 or β-actin, sc-47778) under stirring overnight at 4° C. After incubation, the membranes were washed with a Tween 20 tris-base saline buffer (TBST) and incubated with the respective secondary antibody conjugated to horseradish peroxidase (SIGMA). The bands were visualized by chemiluminescence with the Western Blotting Luminol Reagent reagents (Santacruz Biotechnology®), and the ChemiDoc-It® TS2 Imaging System (UVP, LLC).

[2] = system: C6 cells from rat glioma; assay: DNA fragmentation assay; type: cell-based; conditions: curcumin 100 μM or Cur-[G2]-OH 300 μM, 24 h
Procedure: To determine DNA fragmentation, C6 cells (1×10^6) were seeded in Petri dishes (100 mm) at a confluence of 70%. They were treated with curcumin (100 μM) or Cur-[G2]-OH (300 μM) and incubated for 24 and 48 hours. Controls were incubated with vehicle only (DMSO or PBS respectively).
The DNA was extracted using Trizol (Invitrogen® 15596-026), according to the supplier's specifications, and quantified on a spectrophotometer (Genesys 8®). 20 μg of DNA from each sample was deposited on a 1.5% agarose gel. Electrophoresis was performed at 100 V for 90 minutes. The gel was stained with the Hydragreen™ dye (ACTGene ACT-IDM604) and DNA detection was performed using the ethidium bromide filter and UV light on the Chemidoc-It TS2 imager photodocument (UVP, CA).

[3] = system: C6 cells from rat glioma; assay: Determination of apoptotic death by dual staining with propidium iodide and Hoechst 33342; type: cell-based; conditions: curcumin 100 μM or Cur-[G2]-OH 300 μM, 24 or 48 hours
Procedure: C6 cells from rat glioma (American Tissue Culture Collection, Rockville, Md., U.S.A. ATCC® CCL-107™) cultured under standard conditions in DMEM medium supplemented with Bovine Fetal Serum and 15% horse serum were used for the experiments.
1×10^4 C6 cells/well were cultured with 100 μl of Dulbecco's Modified Eagle's Medium (DMEM) medium for 24 hours in 96-well plates. The cells were treated with curcumin (100 μM), or with Cur-[G2]-OH (300 μM), or with the respective vehicle as a control. After 24- or 48-hours post-treatment, the cells were fixed with a mixture of methanol/acetone (1:1) and stained with propidium iodide (0.5 μg/ml), washed and Hoechst 33342 dye was added (0.1 μg/ml) for staining the nuclei. Cells were observed on the Cytation 3® plate reader (BioTek® Instruments, Inc.) using the DAPI (λ=377-447 nm) and Texas Red (λ=586-647 nm) filters, and the images were captured and analyzed with the Gen5 2.06® program.

[4] = system: C6 cells; assay: Determination of Reactive Oxygen Species (ROS); type: cell-based, rat; conditions: 1 hour; for generation of ROS: curcumin 2, 15, 30 or 100 μM or Cur-[G2]-OH 6, 45, 90 or 300 μM, without NAC; for generation of ROS in the presence of N-acetyl Cysteine (NAC): with NAC 400 μM
Procedure: Intracellular generation of ROS was evaluated in real time by fluorescence microscopy using the ENZ-51011 detection kit (Enzo® Life Sciences). 5×10^3 cells per well were grown in half-area 96 wells plates (Costar 3595®) and incubated for 24 hours. Then, were incubated for 1 hour, with curcumin (2, 15, 30 or 100 μM), or Cur-[G2]-OH (6, 45, 90 or 300 μM) alone or in the presence of the ROS inhibitor N-Acetyl Cysteine (NAC, 400 μM) according to the manufacturer's instructions. As controls, pyocyanin (200 μM) was used as an inducer and NAC […] as an inhibitor, or DMEM medium with or without DMSO as a negative control. At the end of treatment, the test solutions were withdrawn, and the ROS detection solution was added. The plates were observed under bright field and fluorescence microscopy with the GFP filter (λ=469-525 nm), in the Cytation 3® multimodal reader (BioTek®, USA), and the images were captured and analyzed with the Gen5 2.06 program (BioTek®, USA). The experiments were performed five times.

[5] = Stability in acidic pH of gastric juices; type: physicochemical
[6] = system: p62, Beclin1 or LC3 in C6 cells; assay: Analysis of autophagy markers by immunofluorescence (simple staining); type: cell-based, rat; conditions: Cur-[G2]-OH 3-150 μM, 6 and 24 hours
Procedure: Simple staining: 1×10^4 C6 cells/well were cultured with 100 μL of DMEM medium in 96-well plates and incubated 24 hours. Cells were treated with different concentrations of Cur-[G2]-OH (3, 6, 15, 30, 45, 90 and 150 μM), and incubated for 6 and 24 hours. Control cells were replaced only with fresh DMEM medium. The cells were washed with cold PBS and fixed with a mixture of methanol/acetone (1:1) for 5 minutes; they were washed with PBS and incubated with 1% BSA in PBST. Subsequently, they were incubated with the primary antibody (p62, Beclin1 or LC3) at 4° C. overnight. They were washed and incubated with the fluorochrome-conjugated secondary antibody (Abcam® ab150073 Alexa fluor 488) for 1 hour at room temperature. They were washed with PBS and the nucleus stained with Hoechst 33342 (0.1 μg/ml). The images were observed on a Cytation 3® multimodal plate reader and captured and analyzed with the Gen5® 2.06 program using the DAPI (λ=377-447 nm) and GFP (λ=469-525 nm) filters.

[7] = system: normal cells; assay: Toxicity to normal cells; type: cell-based; conditions: high concentration
[8] = system: Keap1, Nrf2 and p62 in C6 cells; assay: Sequential immunofluorescence, co-location of Keap1-p62, Nrf2-p62 and Keap1-Nrf2; type: cell-based, rat; conditions: Cur-[G2]-OH 6, 45 or 90 µM, 24 hours
Procedure: Sequential immunofluorescence: For the protein co-location studies of Keap1-p62, Nrf2-p62 and Keap1-Nrf2, 5×10^3 C6 cells/well were grown in half-area 96 well plates and incubated for 24 hours. Subsequently, the cells were treated with Cur-[G2]-OH (6, 45 or 90 µM) and incubated for 24 hours. In control cells only DMEM medium was replaced by fresh medium. Then, cells were washed with cold PBS and fixed with paraformaldehyde (4% in PBS) or with a mix of methanol/acetone, with paraformaldehyde, cells were washed and permeabilized with PBST (this step was not performed on the cells fixed with methanol/acetone). Cells were washed again and blocked in BSA at 1% in PBST.
The cells were incubated in the first primary antibody (Keap1 or Nrf2) at 4° C. overnight, and subsequently washed and re-incubated with the fluorochrome-conjugated secondary antibody (Alexa fluor 488 Abcam® ab150129), in the dark for 1 hour at room temperature. They were washed and again blocked for 30 minutes with goat serum; The serum was removed and the solution of the second respective primary antibody (p62 or Nrf2) was placed. It was incubated at 4° C. overnight. The incubation of the secondary antibodies proceeded in the same manner as described before, but using the Alexa flour 647 antibody from Abcam® (ab150079). The nuclei were stained with Hoechst 33342 solution (0.1 μg/ml) and the images were captured on a Cytation 3® multimodal plate reader (Bio Tek®, Instruments Inc.), with the Gen5 2.06 program using DAPI filters (λ=377-447 nm), GFP (λ=469-525 nm) and Texas Red (λ=586-647 nm).

[9] = system: C6 cells; assay: Sensitization of tumor cells to oxidative stress (FeSO4), MTT cell viability; type: cell-based, rat
Procedure: C6 cells (1×10^5 cells/well) were seeded in 96 wells plates. At 24 h, a group of cells were treated with FeSO4 at concentrations of 50, 80, 100 and 150 μM or Cur-[G2]-OH at concentrations of 240 or 300 μM and incubated for an additional 24 hours.
Another group of cells were previously incubated by 2 h with the oxidizing agent FeSO4 at concentrations of 50, 80, 100 and 150 μM and subsequently washed for addition to cur-[G2]-OH at concentrations of 240 or 300 μM, continued to incubate until 24 h was completed. A last group of cells, first was treated with Cur-[G2]-OH at concentrations of 240 or 300 μM for 4 h and subsequently changed the medium and FeSO4 was added to concentrations of 50, 80, 100 or 150 μM continuing incubation for 20 hours more.
The colorimetric test based on the reduction of tetrazolium dye MTT (3-(4,5-dimethyltiazol-2-yl)-2,5-diphenyltetrazolium bromide) was used to determine cell viability (Terry L. et al. Cell Viability Assays. May 1, 2013). The formazan crystals were dissolved with a mixture of isopropanol/acetic acid and the absorbance was measured at 540 nm in a microplate reader (Molecular Devices, Sunnyvale, Calif., USA).
The data were statistically analyzed using a one-way ANOVA analysis, and Newman Keuls post-analysis for multiple comparisons (n=3, Mean=SEM).

[10] = system: C6 cells; assay: Effect on glutathione (GSH) concentration, GT10 colorimetric test; type: cell-based, rat
Procedure: Reduced glutathione (GSH) intracellular concentration were measured by a colorimetric test using the GT10 (Oxford Biomedical Research® kit), following the manufacturer's instructions. […] The controls were incubated with DMEM media only. Absorbance was read at 400 nm in Cytation3 ® cell Imaging Multi-mode reader (BioTeck, USA). It is observed that at low concentrations of Cur-[G2]-OH, the synthesis of GSH is induced in C6 cells, but at high concentrations GSH synthesis is inhibited and decrease its concentration in cells.

[11] = Cur-[G2]-OH 300 μM, 24 h, vs untreated cells

Q: What does the source list for `COc1cc(/C=C/C(=O)CC(=O)/C=C/c2ccc(O)c(OC)c2)ccc1O` [curcumin, reference compound]?
A: levels of total eIF2-α (immunoblot) ([1]; 24 h): increases both the levels of total eIF2-α; phosphorylation of eIF2-α (p-eIF2-α, immunoblot) ([1]; 24 h): increases both the levels of total eIF2-α, and the levels of p-eIF2α; DNA fragmentation (agarose gel electrophoresis) [2]: DNA fragmentation was only evident in cells treated with curcumin; nuclear staining / apoptotic morphology (propidium iodide and Hoechst 33342) [3]: chromatin condensation (stars), nuclear fragmentation (thin arrows) and apoptotic bodies (arrowheads); generation of ROS [4]: less effective at producing ROS; generation of ROS in the presence of N-acetyl Cysteine (NAC) [4]: slightly amplified with the use of NAC

Q: For `COc1cc(/C=C/C(=O)/C=C(O)/C=C/c2ccc(OC(=O)C(C)(COC(=O)C(C)(CO)CO)COC(=O)C(C)(CO)CO)c(OC)c2)ccc1OC(=O)C(C)(COC(=O)C(C)(CO)CO)COC(=O)C(C)(CO)CO` [Cur-[G-2]-OH], which “expression of Beclin1 (Western blot)” value [1, 11] is on record?
A: increases the expression of Beclin1

Q: And the “expression of p62 (Western blot)” value [1, 11]?
A: decreases the expression of p62

Q: What about the “total levels of the Nrf2 protein (immunoblot)” value ([1]; Cur-[G2]-OH 300 μM, vs untreated cells) of the same compound?
A: significant decrease in Total levels of the Nrf2 protein

Q: And the “levels of total eIF2-α (immunoblot)” value ([1]; 24 h)?
A: without substantial changes in the levels of total eIF2-α

Q: What about the “phosphorylation of eIF2-α (p-eIF2-α, immunoblot)” value ([1]; 24 h) of the same compound?
A: significant decrease in phosphorylation of eIF2-α

Q: What about the “stability in acidic pH” value [5] of the same compound?
A: instability of Cur-[G-2]-OH in the acidic pH of gastric juices

Q: What about the “DNA fragmentation (agarose gel electrophoresis)” value [2] of the same compound?
A: DNA remains packed and does not migrate into the gel

Q: What about the “expression of Beclin1 (immunofluorescence)” value [6] of the same compound?
A: induces the expression of proteins Beclin1 and LC3, in a concentration-dependent manner

Q: What about the “expression of LC3 (immunofluorescence)” value [6] of the same compound?
A: induces the expression of proteins Beclin1 and LC3, in a concentration-dependent manner

Q: What about the “expression of p62 (immunofluorescence)” value [6] of the same compound?
A: significantly decreasing expression of p62

Q: And the “toxicity to normal cells” value [7]?
A: not toxic to normal cells at high concentration

Q: What about the “co-location Keap1-Nrf2 in the nucleus” value [8] of the same compound?
A: interaction of Keap1 with Nrf2 in this subcellular compartment is observed

Q: And the “expression of Keap1 in nucleus and cytoplasm (immunofluorescence)” value [8]?
A: significant levels are still detected, both in the nucleus and in the cytoplasm

Q: What about the “expression of Nrf2 in cytoplasm and nucleus (immunofluorescence)” value [8] of the same compound?
A: rapidly induces the loss of the expression of protein Nrf2 in the cytoplasm and the attenuation of the signal in the nucleus

Q: And the “p62 localisation and co-location Keap1-p62” value [8]?
A: promotes the exclusion of p62 from the nucleus and its interaction with Keap1 in the cytoplasm and autophagosomes

Q: And the “nuclear staining / apoptotic morphology (propidium iodide and Hoechst 33342)” value [3]?
A: staining of the nuclei similar to that of the untreated controls

Q: What about the “cell viability / cytotoxicity in combination with FeSO4 (MTT)” value ([9]; C6 cells first exposed to FeSO4 50-150 μM for 2 h, then Cur-[G2]-OH 240 or 300 μM, or administered simultaneously) of the same compound?
A: This synergism does not exist

Q: What about the “cell viability / cytotoxicity in combination with FeSO4 (MTT)” value ([9]; C6 cells pre-incubated with Cur-[G2]-OH 240 or 300 μM for 4 h, then FeSO4 50-150 μM for 20 h) of the same compound?
A: synergism between Cur-[G-2]-OH and FeSO4

Q: And the “generation of ROS” value [4]?
A: promotes the generation of ROS in a concentration-depending manner

Q: What about the “generation of ROS in the presence of N-acetyl Cysteine (NAC)” value [4] of the same compound?
A: not substantially modified with the use of an antioxidant (NAC)

Q: What about the “decrease at GSH levels” value ([10]; 300 μM, 24 h) of the same compound?
A: about 50%

Q: And the GSH levels ([10]; 300 μM, 48 hours, data not shown)?
A: complete elimination of GSH levels

Q: And the “baseline levels of GSH” value ([10]; intermediate doses 45 and 90 μM, 24 hours)?
A: causes the baseline levels of GSH to increase considerably

From patent US11684592B2, “Multiresistant-tumour sensitiser” (Instituto Nacional de Neurologia Y Neurocirugia Manuel …, priority 2017, dated 2023)
